These are literature values, as cited in patent US20230001221A1, “Methods of Treating Cancer with Alternating Electric Fields, Checkpoint Inhibitors, and Combination Chemotherapy” (Novocure GmbH, priority 2021, published 2023).

Data set [1] relates to human and murine pancreatic cancer cell lines. The settings on record: in-vitro, TTFields combined with the chemotherapy.
A further data set concerns tumor growth. The settings on record: in-vivo, TTFields added to the chemotherapy.

For the compound `CCc1c2c(nc3ccc(OC(=O)N4CCC(N5CCCCC5)CC4)cc13)-c1cc3c(c(=O)n1C2)COC(=O)[C@]3(O)CC` [irinotecan], the “cytotoxicity when combined with TTFields” value in data set [1] is recorded as “enhanced cytotoxicity”.

As for `O=c1[nH]cc(F)c(=O)[nH]1` [5-FU, fluorouracil], the “inhibition of tumor growth” value in the data set on tumor growth is given as “significant inhibition of tumor growth”.

Regarding `Nc1ccn([C@@H]2O[C@H](CO)[C@@H](O)C2(F)F)c(=O)n1` [gemcitabine], in data set [1], the “cytotoxicity when combined with TTFields” value is reported as “enhanced cytotoxicity”. For the same compound, the “inhibition of tumor growth” value in the data set with tumor growth is “significant inhibition of tumor growth”.
